Patent US11959083B2, “Immunosuppression-reverting oligonucleotides inhibiting the expression of CD39” (Secarna Pharmaceuticals GmbH & Co. KG, priority 2016, dated 2024)
l = locked nucleic acid (LNA); d = 2'-deoxy (DNA)

Tests used:
Assay type in all cases: cell-based, human
[1] = tested on: hCD39 mRNA; experiment: hCD39 mRNA knockdown efficacy screen in A-172 cells (single dose, gymnotic delivery, QuantiGene Singleplex); conditions: 10 μM, 3 days; for Residual hCD39 mRNA expression relative to untreated cells (set as 1): third screening round; for Mean hCD39 mRNA expression (relative to untreated cells set as 1): first screening round; for Mean hCD39 mRNA expression (relative to untreated cells set as 1) / Relative hCD39 mRNA expression (compared to non-treated cells): normalized to HPRT1; for Relative hCD39 mRNA expression (compared to non-treated cells): second screening round
Protocol: (§1) FIGS. 2A to 2D depict hCD39 mRNA knockdown efficacy of hCD39 antisense oligonucleotides in human cancer cell lines HDLM-2 (human Hodgkin Lymphoma) in a first and second screening round (FIGS. 2A-1 and 2A-2) and 2B-1 and 2B-2 and A-172 (human glioblastoma) in a first and second screening round (FIGS. 2C-1 and 2C-2) and 2D-1 and 2D-2. HDLM-2 and A-172 cells were treated for 3 days with 10 μM of the respective antisense oligonucleotide. As negative control, cells were treated with neg1, an antisense oligonucleotide having the sequence CGTTTAGGCTATGTACTT (SEQ ID NO:99) (described in WO2014154843 A1). Residual hCD39 mRNA expression relative to untreated cells is depicted. Expression values were normalized to expression of the housekeeping gene HPRT1. Depicted is the mean of triplicate wells+/−SD.
(§2) FIGS. 6A-6B depicts a third screening round where further antisense oligonucleotides were designed. These antisense oligonucleotides were based on efficient antisense oligonucleotides from the first and second screening round. Therefore, hCD39 antisense oligonucleotides were tested in human cancer cell lines HDLM-2 (human Hodgkin's lymphoma) (FIG. 6A) and A-172 (human glioblastoma) (FIG. 6B). HDLM-2 and A-172 cells were treated for 3 days with 10 μM of the respective antisense oligonucleotide. […] Residual hCD39 mRNA expression relative to untreated cells (set as 1) is depicted.
(§3) In order to analyze the efficacy of hCD39 antisense oligonucleotides of the present invention with regard to the knockdown of hCD39 mRNA expression in cancer cell lines, HDLM-2 (human Hodgkin Lymphoma, DSMZ) and A-172 (human glioblastoma, ATCC) cells were treated with a single dose (concentration: 10 μM without addition of any transfection reagent; this process is called gymnotic delivery) of the respective antisense oligonucleotide as shown in FIG. 2A to 2D. hCD39 and HPRT1 mRNA expression was analyzed three days later using the QuantiGene Singleplex assay (Affymetrix) and hCD39 expression values were normalized to HPRT1 values. […] Values of the mean normalized mRNA expression of hCD39 compared to non-treated cells are listed for A-172 (Table 4 for first screening round and Table 5 for second screening round) and HDLM-2 cells (Table 6 for first screening round and Table 7 for second screening round) in the following:
(§4) For a third screening round, new antisense oligonucleotides were designed. These antisense oligonucleotides were based on efficient antisense oligonucleotides from the first screening round with modifications in length, exact position on mRNA and chemical modification pattern. Therefore, hCD39 antisense oligonucleotides were tested in human cancer cell lines (FIG. 6A, Table 10) HDLM-2 (human Hodgkin's lymphoma) and (FIG. 6B, Table 11) A-172 (human glioblastoma). HDLM-2 and A-172 cells were treated for 3 days with 10 μM of the respective antisense oligonucleotide. […] Residual hCD39 mRNA expression relative to untreated cells (set as 1) is depicted.

[2] = tested on: hCD39 mRNA; experiment: hCD39 mRNA knockdown efficacy screen in HDLM-2 cells (single dose, gymnotic delivery, QuantiGene Singleplex); parameters: key to Relative hCD39 mRNA expression (compared to non-treated cells): *: values are below detection limit; conditions: 10 μM, 3 days; for Residual hCD39 mRNA expression relative to untreated cells (set as 1): third screening round; for Mean hCD39 mRNA expression normalized to HPRT1 relative to untreated control = 1: first screening round; for Relative hCD39 mRNA expression (compared to non-treated cells): second screening round, normalized to HPRT1
Protocol: as §1, §2, §3, §4

[3] = tested on: hCD39 mRNA; experiment: IC50 determination / concentration-dependent hCD39 mRNA knockdown in HDLM-2 cells; conditions: for mRNA inhibition: HDLM-2, 3 days, Table 12
Protocol: HDLM-2 cells were treated for 3 days with the indicated concentration of the respective antisense oligonucleotide. Residual hCD39 expression is depicted compared to untreated control cells. hCD39 mRNA expression values were normalized to expression of the housekeeping gene HPRT1.
The antisense oligonucleotide A04040H (SEQ ID No. 3) that had shown potent activity in the first and second screening round was used as reference. HDLM-2 cells treated for 3 days with the indicated concentrations of the respective antisense oligonucleotide. hCD39 mRNA expression values were normalized to expression of the housekeeping gene HPRT1. Residual hCD39 mRNA expression relative to untreated cells (set as 100) is depicted. Depicted is the mean of triplicate wells+/−SD.
In a second experiment the concentration-dependency of effects and the IC50 values of hCD39 antisense oligonucleotides A04010H (SEQ ID No.14), A04016H (SEQ ID No.20), A04017H (SEQ ID No.21), A04020H (SEQ ID No. 24) and A04026H (SEQ ID No.30) were tested. […] HDLM-2 cells were treated with titrated amounts of the respective antisense oligonucleotide (concentrations: 10 μM, 3.3 μM, 1.1 μM, 370 nM, 120 nM, 41 nM, 14 nM, 4.5 nM). hCD39 mRNA expression was analyzed after three days of treatment. FIG. 5 and Table 9 depicts the concentration-dependent reduction of hCD39 mRNA expression by the selected hCD39 antisense oligonucleotides.
The hCD39 antisense oligonucleotides A04051H (SEQ ID No.88), A04052H (SEQ ID No.89), A04053H ([…]), A04056H (SEQ ID No.92), A04059H (SEQ ID No.94), A04060H (SEQ ID No.95), and A04061H (SEQ ID No.96) had shown potent single-dose activity in both HDLM-2 and A-172 cells. […] The antisense oligonucleotide A04040H that had shown potent activity in the first screening round was used as reference. hCD39 mRNA expression was analyzed after 3 days of treatment. FIG. 7 depicts the concentration-dependent reduction of hCD39 expression by hCD39 antisense oligonucleotides.

| Substance | Mean hCD39 mRNA expression (relative to untreated cells set as 1) [1] | Relative hCD39 mRNA expression (compared to non-treated cells) [1] | Mean hCD39 mRNA expression normalized to HPRT1 relative to untreated control = 1 [2] | Relative hCD39 mRNA expression (compared to non-treated cells) [2] | further results |
| --- | --- | --- | --- | --- | --- |
| +A*+G*+A*G*T*G*C*C*T*G*A*T*C*+C*+T*+T (antisense AGAGTGCCTGATCCTT; sugars from the 5' end l3 d10 l3, all phosphorothioate, methylation of C not given here) [A04051H] | – | – | – | – | Residual hCD39 mRNA expression relative to untreated cells (set as 1) [1]: 0.34; Residual hCD39 mRNA expression relative to untreated cells (set as 1) [2]: 0.02; mRNA inhibition ([3]; 0.45 nM): 30.83%; mRNA inhibition ([3]; 1.3 nM): 15.36%; mRNA inhibition ([3]; 4 nM): 23.62%; mRNA inhibition ([3]; 12 nM): 23.14%; mRNA inhibition ([3]; 40 nM): 43.66%; mRNA inhibition ([3]; 110 nM): 70.34%; mRNA inhibition ([3]; 330 nM): 86.77%; mRNA inhibition ([3]; 1000 nM): 92.82%; IC50 ([3]; HDLM-2 cells, hCD39 mRNA, 3 days, third screening round (Table 12)): 69 nM |
| +A*+G*G*A*T*A*G*T*C*T*T*G*T*C*+T*+C (antisense AGGATAGTCTTGTCTC; sugars from the 5' end l2 d12 l2, all phosphorothioate, methylation of C not given here) [A04034H] | 0.28 | 0.15 | 0.06 | 0.06 | – |
| +C*C*T*A*C*C*C*A*G*G*A*T*A*G*+T*+C (antisense CCTACCCAGGATAGTC; sugars from the 5' end l1 d13 l2, all phosphorothioate, methylation of C not given here) [A04035H] | – | 0.37 | 0.17 | 0.18 | – |
| +A*+C*+T*A*T*G*C*T*G*A*A*C*C*A*+C*+C (antisense ACTATGCTGAACCACC; sugars from the 5' end l3 d11 l2, all phosphorothioate, methylation of C not given here) [A04022H] | 0.14 | 0.15 | 0.09 | 0.09 | – |
| +A*+C*+T*C*C*A*G*C*G*T*A*A*+G*+A*+T (antisense ACTCCAGCGTAAGAT; sugars from the 5' end l3 d9 l3, all phosphorothioate, methylation of C not given here) [A04013H] | – | 0.75 | 0.22 | 0.22 | – |
| +G*+A*G*T*A*C*A*A*C*T*G*A*+A*+C*+C (antisense GAGTACAACTGAACC; sugars from the 5' end l2 d10 l3, all phosphorothioate, methylation of C not given here) [A04018H] | 0.19 | 0.20 | 0.12 | 0.12 | – |
| +G*+C*+C*C*C*A*A*A*A*T*C*C*C*C*+C*+T*+G (antisense GCCCCAAAATCCCCCTG; sugars from the 5' end l3 d11 l3, all phosphorothioate, methylation of C not given here) [A04047H] | – | 0.43 | – | * | – |
| +G*+G*+A*C*A*A*T*G*G*T*T*G*C*+T*C*+A (antisense GGACAATGGTTGCTCA; sugars from the 5' end l3 d10 l1 d1 l1, all phosphorothioate, methylation of C not given here) [A04030H] | 0.19 | 0.10 | 0.07 | 0.38 | – |
| +A*+G*+C*G*T*A*A*G*A*T*G*T*+T*+T*+T (antisense AGCGTAAGATGTTTT; sugars from the 5' end l3 d9 l3, all phosphorothioate, methylation of C not given here) [A04012H] | 0.43 | 0.43 | 0.11 | 0.10 | – |
| +A*+A*+T*C*C*C*C*C*T*G*G*A*+G*+T*+G (antisense AATCCCCCTGGAGTG; sugars from the 5' end l3 d9 l3, all phosphorothioate, methylation of C not given here) [A04011H] | – | 0.69 | 0.29 | 0.30 | – |
| +T*+T*+T*G*T*G*T*G*A*G*A*G*+C*+T*+T (antisense TTTGTGTGAGAGCTT; sugars from the 5' end l3 d9 l3, all phosphorothioate, methylation of C not given here) [A04058H] | – | – | – | – | Residual hCD39 mRNA expression relative to untreated cells (set as 1) [1]: 0.25; Residual hCD39 mRNA expression relative to untreated cells (set as 1) [2]: 0.01 |
